The text below walks through data of patent US8765746B2 (Millennium Pharmaceuticals, Inc., priority 2010, dated 2014).

Molecules are shown by their SMILES. Bounds are passed on as bounds.

Assay type in all cases: biochemical
In one assay the target is T1, VPS34 (Homo sapiens, UniProt Q8NEB9).
T1 construct: GST (N); host or cells: SF9 insect cells (baculovirus)
The assay can be described thus: Human VPS34 enzyme assay (Adapta Universal Kinase Assay). The settings on record: for inhibition at 1.11 µM: 1 h, read-out: VPS34 % ihn; for VPS34 % ihn: at 1.11 μM. Summed up:
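Human VPS34, N-terminally GST-tagged and baculovirus-expressed in Sf9 cells. Solution with 20 uM ATP and 200 uM PI-PS added, then one with 5 nM enzyme (levels in each added solution), in buffer with 2 mM DTT and 2 mM MnCl2; 1 h at room temperature. ADP read by Adapta TR-FRET (Eu anti-ADP antibody, Alexa Fluor 647 tracer).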

For a further assay, the target named is T2, PI3Kbeta (Homo sapiens, UniProt P42338).
T2 construct: His (N); host or cells: SF9 insect cells (baculovirus)
The assay can be described thus: Human PI3K beta enzyme assay (HTRF, as for PI3K alpha). The settings on record: for inhibition at 1.11 µM: read-out: PI3Kbeta % inh; for IC50: read-out: IC50 (inhibit PI3Kbeta); for inhibition at 1.11 µM / PI3Kbeta % inh: at 1.11 μM. In outline:
(§1)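 N-His p110β/δ co-expressed with untagged p85 in Sf9, p110γ alone. Enzyme 5.25 nM (β), 0.75 nM (δ), 5 nM (γ), with ATP 25 uM and di-C8 PI(4,5)P2 3.5 uM (added-solution levels), pH 7.00, 30 min RT. HTRF read-out: biotin-PIP3, GST-GRP-1 PH domain, Eu anti-GST, streptavidin-XL.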
In general terms: TR-FRET usually uses a lanthanide donor and a delayed reading to cut background.

The target of the next assay is T3, PI3Kgamma (Homo sapiens, UniProt P48736).
T3 construct: His (N); host or cells: SF9 insect cells (baculovirus)
Briefly: Human PI3K gamma enzyme assay (HTRF, as for PI3K alpha). As to conditions: for inhibition at 1.11 µM: read-out: PI3Kgamma % inh; for PI3Kgamma % inh: at 1.11 μM. In outline: as §1

The target in another assay is T4, PI3Kalpha (Homo sapiens, UniProt P42336).
T4 construct: His (N); host or cells: SF9 insect cells (baculovirus)
Briefly: Human PI3Kα enzyme assay (HTRF). The settings on record: for inhibition at 1.11 µM: read-out: PI3Kalpha % inh; for PI3Kalpha % inh: at 1.11 μM. Summed up:
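His-tagged p110α co-expressed with p85 in Sf9 cells was reacted for 30 min at room temperature in pH 7.00 Hepes buffer with 10 mM MgCl2. Addition solutions held 25 uM ATP, 3.5 uM di-C8 PI(4,5)P2 and 0.4875 nM enzyme. The reaction was quenched with EDTA/biotin-PIP3 and detected by HTRF (GST-GRP-1 PH domain, streptavidin-XL, Eu anti-GST) after 1 h.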

The next assay concerns the target T5, PI3Kdelta (Homo sapiens, UniProt O00329).
T5 construct: His (N); host or cells: SF9 insect cells (baculovirus)
The assay can be described thus: Human PI3K delta enzyme assay (HTRF, as for PI3K alpha). As to conditions: for inhibition at 1.11 µM: read-out: PI3Kdelta % inh; for PI3Kdelta % inh: at 1.11 μM. In outline:
as §1

T2 sequence (P42338 whole entry): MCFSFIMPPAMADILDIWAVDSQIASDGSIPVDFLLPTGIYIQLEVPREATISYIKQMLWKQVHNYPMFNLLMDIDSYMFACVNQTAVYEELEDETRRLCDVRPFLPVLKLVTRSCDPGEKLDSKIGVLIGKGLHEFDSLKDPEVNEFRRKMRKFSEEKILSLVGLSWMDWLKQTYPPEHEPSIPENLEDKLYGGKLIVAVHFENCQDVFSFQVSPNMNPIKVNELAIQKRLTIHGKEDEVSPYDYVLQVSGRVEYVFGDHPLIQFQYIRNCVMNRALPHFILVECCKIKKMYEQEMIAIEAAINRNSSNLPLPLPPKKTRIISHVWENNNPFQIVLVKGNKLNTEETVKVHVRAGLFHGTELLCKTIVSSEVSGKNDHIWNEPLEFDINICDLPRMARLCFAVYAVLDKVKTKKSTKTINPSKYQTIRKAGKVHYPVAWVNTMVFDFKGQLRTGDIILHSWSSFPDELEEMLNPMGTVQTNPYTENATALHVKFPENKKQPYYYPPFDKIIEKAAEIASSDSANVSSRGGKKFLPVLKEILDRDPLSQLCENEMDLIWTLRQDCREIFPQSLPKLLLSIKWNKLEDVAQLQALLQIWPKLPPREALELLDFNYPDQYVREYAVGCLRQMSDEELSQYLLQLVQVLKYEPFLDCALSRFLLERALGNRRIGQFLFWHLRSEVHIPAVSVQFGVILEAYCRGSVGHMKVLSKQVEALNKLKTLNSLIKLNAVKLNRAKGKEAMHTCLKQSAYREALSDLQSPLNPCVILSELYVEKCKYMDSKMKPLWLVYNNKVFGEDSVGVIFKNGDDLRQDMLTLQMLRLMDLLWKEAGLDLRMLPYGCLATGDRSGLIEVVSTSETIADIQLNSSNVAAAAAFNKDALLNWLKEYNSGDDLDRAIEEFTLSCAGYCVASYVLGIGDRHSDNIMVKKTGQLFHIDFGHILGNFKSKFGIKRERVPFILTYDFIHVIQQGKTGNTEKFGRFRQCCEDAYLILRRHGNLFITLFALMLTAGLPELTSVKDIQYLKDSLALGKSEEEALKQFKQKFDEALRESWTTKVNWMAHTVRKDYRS
T2 sequence (P27986 whole entry partner): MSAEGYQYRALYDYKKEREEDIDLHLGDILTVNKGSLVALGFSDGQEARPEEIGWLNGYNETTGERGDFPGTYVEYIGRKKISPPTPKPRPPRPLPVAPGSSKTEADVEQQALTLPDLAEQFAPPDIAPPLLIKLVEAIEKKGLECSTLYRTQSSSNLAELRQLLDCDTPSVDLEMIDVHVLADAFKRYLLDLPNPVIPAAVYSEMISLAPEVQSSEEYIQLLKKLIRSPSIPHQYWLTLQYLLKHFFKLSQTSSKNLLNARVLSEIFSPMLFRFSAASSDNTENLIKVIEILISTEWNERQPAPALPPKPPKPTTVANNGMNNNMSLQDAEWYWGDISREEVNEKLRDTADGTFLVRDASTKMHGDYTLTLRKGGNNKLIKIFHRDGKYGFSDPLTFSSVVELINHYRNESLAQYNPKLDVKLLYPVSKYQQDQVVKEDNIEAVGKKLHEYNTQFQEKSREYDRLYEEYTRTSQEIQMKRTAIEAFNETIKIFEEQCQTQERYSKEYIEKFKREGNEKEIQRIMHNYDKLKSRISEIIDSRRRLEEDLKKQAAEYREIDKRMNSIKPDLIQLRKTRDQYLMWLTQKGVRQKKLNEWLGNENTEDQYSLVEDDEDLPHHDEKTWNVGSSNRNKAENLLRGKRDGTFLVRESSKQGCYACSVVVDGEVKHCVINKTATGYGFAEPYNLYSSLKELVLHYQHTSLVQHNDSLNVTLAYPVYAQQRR
T3 sequence (P48736 whole entry): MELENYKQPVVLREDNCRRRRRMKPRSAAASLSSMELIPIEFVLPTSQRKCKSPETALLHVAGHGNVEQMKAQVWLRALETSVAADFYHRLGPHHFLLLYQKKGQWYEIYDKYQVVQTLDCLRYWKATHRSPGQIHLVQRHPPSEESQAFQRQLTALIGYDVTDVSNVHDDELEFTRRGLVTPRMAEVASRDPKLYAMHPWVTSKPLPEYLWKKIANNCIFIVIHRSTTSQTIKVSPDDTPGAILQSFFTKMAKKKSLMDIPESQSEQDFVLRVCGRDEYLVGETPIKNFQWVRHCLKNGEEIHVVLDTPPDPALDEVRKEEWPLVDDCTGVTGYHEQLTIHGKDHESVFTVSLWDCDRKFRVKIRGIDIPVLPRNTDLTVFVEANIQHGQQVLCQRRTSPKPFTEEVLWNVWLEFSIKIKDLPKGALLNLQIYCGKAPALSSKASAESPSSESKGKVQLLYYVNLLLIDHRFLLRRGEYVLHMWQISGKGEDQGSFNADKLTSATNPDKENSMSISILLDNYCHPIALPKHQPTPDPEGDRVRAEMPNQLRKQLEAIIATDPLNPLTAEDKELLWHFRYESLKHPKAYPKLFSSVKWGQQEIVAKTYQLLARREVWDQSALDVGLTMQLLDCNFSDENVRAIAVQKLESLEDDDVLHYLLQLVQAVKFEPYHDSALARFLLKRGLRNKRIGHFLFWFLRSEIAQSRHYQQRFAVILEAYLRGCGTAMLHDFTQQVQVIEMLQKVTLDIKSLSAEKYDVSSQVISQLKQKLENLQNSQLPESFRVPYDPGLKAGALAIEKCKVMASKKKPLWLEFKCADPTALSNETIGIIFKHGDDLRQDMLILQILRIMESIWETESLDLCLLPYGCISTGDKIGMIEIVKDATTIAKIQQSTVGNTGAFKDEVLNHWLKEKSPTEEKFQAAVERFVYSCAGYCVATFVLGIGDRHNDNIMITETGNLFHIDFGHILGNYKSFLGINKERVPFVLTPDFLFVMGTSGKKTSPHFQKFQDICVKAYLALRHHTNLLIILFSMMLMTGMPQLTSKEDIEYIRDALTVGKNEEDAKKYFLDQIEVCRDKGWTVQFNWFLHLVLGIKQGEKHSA
T1 sequence (Q8NEB9 whole entry): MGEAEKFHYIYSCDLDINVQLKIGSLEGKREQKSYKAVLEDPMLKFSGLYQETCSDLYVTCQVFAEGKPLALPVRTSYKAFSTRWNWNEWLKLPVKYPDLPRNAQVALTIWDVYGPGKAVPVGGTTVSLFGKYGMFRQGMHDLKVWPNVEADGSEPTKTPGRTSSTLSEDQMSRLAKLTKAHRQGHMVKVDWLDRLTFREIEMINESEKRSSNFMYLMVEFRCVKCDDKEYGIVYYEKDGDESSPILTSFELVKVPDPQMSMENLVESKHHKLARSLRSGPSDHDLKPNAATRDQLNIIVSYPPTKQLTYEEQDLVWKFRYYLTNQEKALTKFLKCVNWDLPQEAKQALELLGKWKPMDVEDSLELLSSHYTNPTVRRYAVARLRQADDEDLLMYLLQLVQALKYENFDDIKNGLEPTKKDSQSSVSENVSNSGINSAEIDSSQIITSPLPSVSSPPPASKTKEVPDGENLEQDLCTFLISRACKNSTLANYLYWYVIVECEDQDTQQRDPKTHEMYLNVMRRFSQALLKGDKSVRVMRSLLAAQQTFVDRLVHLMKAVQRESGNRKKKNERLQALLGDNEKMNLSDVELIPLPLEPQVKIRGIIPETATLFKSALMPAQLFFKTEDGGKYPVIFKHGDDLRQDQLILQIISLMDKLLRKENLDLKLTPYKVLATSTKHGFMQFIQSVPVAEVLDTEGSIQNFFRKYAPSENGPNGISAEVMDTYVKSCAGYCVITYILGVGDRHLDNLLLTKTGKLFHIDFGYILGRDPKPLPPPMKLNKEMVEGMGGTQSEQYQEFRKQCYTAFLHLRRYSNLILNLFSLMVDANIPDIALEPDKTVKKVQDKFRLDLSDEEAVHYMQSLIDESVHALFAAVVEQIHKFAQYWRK
T4 sequence (P42336 whole entry): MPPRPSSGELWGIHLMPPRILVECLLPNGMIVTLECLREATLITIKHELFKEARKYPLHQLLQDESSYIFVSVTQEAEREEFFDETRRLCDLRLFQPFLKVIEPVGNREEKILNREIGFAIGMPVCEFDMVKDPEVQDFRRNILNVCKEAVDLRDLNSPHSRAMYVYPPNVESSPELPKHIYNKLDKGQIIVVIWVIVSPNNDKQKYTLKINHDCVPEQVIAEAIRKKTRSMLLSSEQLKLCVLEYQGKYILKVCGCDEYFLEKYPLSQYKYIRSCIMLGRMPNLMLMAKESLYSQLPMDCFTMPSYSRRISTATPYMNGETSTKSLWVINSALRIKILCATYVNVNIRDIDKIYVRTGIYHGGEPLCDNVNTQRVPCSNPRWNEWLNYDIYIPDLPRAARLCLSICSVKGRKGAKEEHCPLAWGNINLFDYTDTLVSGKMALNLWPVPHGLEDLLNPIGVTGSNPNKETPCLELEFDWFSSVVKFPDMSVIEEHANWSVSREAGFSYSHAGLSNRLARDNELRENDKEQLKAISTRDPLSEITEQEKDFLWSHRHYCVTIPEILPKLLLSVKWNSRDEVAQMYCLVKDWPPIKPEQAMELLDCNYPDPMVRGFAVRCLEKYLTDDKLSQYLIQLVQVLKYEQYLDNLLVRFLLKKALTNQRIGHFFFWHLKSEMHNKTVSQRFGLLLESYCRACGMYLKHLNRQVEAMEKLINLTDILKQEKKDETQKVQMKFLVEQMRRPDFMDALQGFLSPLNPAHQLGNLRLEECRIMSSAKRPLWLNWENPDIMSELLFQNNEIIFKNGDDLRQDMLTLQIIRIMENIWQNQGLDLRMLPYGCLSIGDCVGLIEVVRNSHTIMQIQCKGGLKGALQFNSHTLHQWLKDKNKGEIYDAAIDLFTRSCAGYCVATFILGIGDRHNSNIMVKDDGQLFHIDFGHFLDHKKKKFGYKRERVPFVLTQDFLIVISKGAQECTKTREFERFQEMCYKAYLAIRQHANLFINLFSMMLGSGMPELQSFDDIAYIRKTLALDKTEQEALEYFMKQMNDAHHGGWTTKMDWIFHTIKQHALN
T4 sequence (P27986 whole entry partner): as the sequence (P27986 whole entry partner) above

For the molecule `CC1(C)C(=O)c2sc(N3CCOCC3)cc2C1c1ccc(Cl)cc1` (centres unmarked) [Compound 161, 4-(4-chlorophenyl)-5,5-dimethyl-2-morpholino-4H-cyclopenta[b]thiophen-6(5H)-one], the inhibition at 1.11 µM at VPS34 was determined as 10.8%; on PI3Kbeta, 92.6%; on PI3Kgamma, 19.3%; on PI3Kalpha it was 12.1%; at PI3Kdelta, 59.3%.
On to `O=S1(=O)NCC(O)(c2ccc(Cl)cc2)c2cc(-c3ccncc3)sc21` (racemic) [Compound 26, 4-(4-chlorophenyl)-6-pyridin-4-yl-3,4-dihydro-2H-thieno[3,2-e][1,2]thiazin-4-ol 1,1-dioxide], for which the inhibition at 1.11 µM came to 1.2% at VPS34; 105% at PI3Kbeta; 11.7% at PI3Kgamma; 6.6% at PI3Kalpha; 37.9% on PI3Kdelta. Further, the IC50 (usually the concentration needed to halve the response being measured) at PI3Kbeta is < 100 nM.
In the case of `O=C1NCCC(c2ccc3ccccc3c2)c2nc(N3CCOCC3)sc21` (centres unmarked) [Compound 209], the inhibition at 1.11 µM stood at 42.1% at VPS34, 49.5% on PI3Kgamma and 110% at PI3Kdelta. In addition, the PI3Kbeta % inh at PI3Kbeta is reported as 114.75%. This molecule had a PI3Kalpha % inh at PI3Kalpha of 81.32%.
In the case of `COc1cc(C2CC(=O)c3sc(N4CCOCC4)cc32)ccc1Cl` (centres unmarked) [Compound 158], the inhibition at 1.11 µM was 5.41% at VPS34; 108% at PI3Kbeta; 65.3% on PI3Kgamma; 12.9% at PI3Kalpha; 100% at PI3Kdelta.
The corresponding values for `O=C1CC(c2ccc(Cl)c(Cl)c2)c2cc(N3CCOCC3)sc21` (centres unmarked) [Compound 171] are 16.8%, 106%, 64.4%, 48.1% and 111%.
In the case of `O=C1CCCC(O)(c2ccc(Cl)cc2)c2cc(-c3ccncc3)sc21` (centres unmarked) [Compound 15, 4-(4-chlorophenyl)-4-hydroxy-2-pyridin-4-yl-4,5,6,7-tetrahydro-8H-cyclohepta[b]thiophen-8-one], the inhibition at 1.11 µM stood at 2% on VPS34; 65% on PI3Kbeta; 4% on PI3Kgamma; 3.1% at PI3Kalpha; 26.4% on PI3Kdelta. For the same molecule, on PI3Kbeta, the IC50 was 100 to 1000 nM.
As to `CN1CC(c2ccc(Cl)cc2)c2cc(-c3ccncc3)sc2C1=O` (centres unmarked) [Compound 164], the inhibition at 1.11 µM was 8.39% on VPS34; 76.8% on PI3Kbeta; 5.01% at PI3Kgamma; -2.24% at PI3Kalpha; 14% on PI3Kdelta.
On to `O=C1CCC(O)C(c2ccc(Cl)cc2)c2cc(-c3ccncc3)sc21` (centres unmarked) [Compound 129], for which the VPS34 % ihn on VPS34 is on record as −2.80%. The same molecule registered a PI3Kbeta % inh on PI3Kbeta of 59.86%. At PI3Kgamma, this molecule came in with a PI3Kgamma % inh of 3.89%. The same molecule showed a PI3Kalpha % inh at PI3Kalpha of 2.32%. Also, the PI3Kdelta % inh on PI3Kdelta is given as 26.46%.
With `O=C1NCCC(c2ccc(Cl)cc2)c2nc(N3CCOCC3)sc21` (centres unmarked) [Compound 180, 8-(4-chlorophenyl)-2-(morpholin-4-yl)-5,6,7,8-tetrahydro-4H-[1,3]thiazolo[5,4-c]azepin-4-one], the inhibition at 1.11 µM at VPS34 worked out at 55.8%; on PI3Kbeta, 97.4%; at PI3Kgamma, 28.7%; on PI3Kalpha, 13.9%; on PI3Kdelta, 87.3%.
In the case of `COC(=O)[C@@H]1C(=O)c2sc(-c3ccncc3)cc2[C@H]1c1ccc(Cl)cc1` (relative stereo) [Compound 29, trans-methyl 4-(4-chlorophenyl)-6-oxo-2-(pyridin-4-yl)-5,6-dihydro-4H-cyclopenta[b]thiophene-5-carboxylate], the inhibition at 1.11 µM at VPS34 is 1.4%; on PI3Kbeta, 87.8%; on PI3Kgamma, 4.6%; on PI3Kalpha, 6%; at PI3Kdelta, 20.9%. At PI3Kbeta, the IC50 lay within 100 to 1000 nM.
As to `CC1(C)CNC(=O)c2sc(-c3ccncc3)cc2C1c1ccc(Cl)cc1` (centres unmarked) [Compound 140, 4-(4-chlorophenyl)-5,5-dimethyl-2-pyridin-4-yl-4,5,6,7-tetrahydro-8H-thieno[2,3-c]azepin-8-one], the inhibition at 1.11 µM is 19.5% on VPS34; 98.3% on PI3Kbeta; 18.1% on PI3Kgamma; 8.99% at PI3Kalpha; 67.9% on PI3Kdelta.
With `NC(=O)[C@@H]1NC(=O)c2sc(N3CCOCC3)cc2[C@H]1c1ccc(Cl)cc1` [Compound 126], the VPS34 % ihn on VPS34 was 26.74%. For the same molecule, the PI3Kbeta % inh on PI3Kbeta is reported as 98.08%. On PI3Kgamma, the PI3Kgamma % inh was 36.62%. The molecule further returned a PI3Kalpha % inh at PI3Kalpha of 39.72%. In addition, the PI3Kdelta % inh on PI3Kdelta was found to be 75.35%.
For the molecule `O=C1CC(c2ccc(Cl)cc2)c2cc(N3CCOCC3)sc21` (centres unmarked) [Compound 28, 4-(4-chlorophenyl)-2-morpholino-4H-cyclopenta[b]thiophen-6(5H)-one], the VPS34 % ihn at VPS34 amounted to 8.600%. Also, the inhibition at 1.11 µM is 105% at PI3Kbeta, 15.7% on PI3Kalpha and 75% at PI3Kdelta. Further, on PI3Kbeta, the IC50 is < 100 nM. Moreover, the PI3Kgamma % inh on PI3Kgamma was 23.550%.
Take `O=C1CC(c2ccc3ccccc3n2)c2cc(N3CCOCC3)sc21` (centres unmarked) [Compound 183]: the inhibition at 1.11 µM on VPS34 was 9%; on PI3Kbeta, 90.4%; on PI3Kgamma, 20.6%; on PI3Kalpha it was 26.9%; on PI3Kdelta, 60.1%.
The corresponding values for `O=C1CC(c2ccc(Cl)cc2)c2cc(-c3ccncc3)sc2N1` (centres unmarked) [Compound 182, 4-(4-chlorophenyl)-2-(pyridin-4-yl)-4,5-dihydrothieno[2,3-b]pyridin-6(7H)-one] are 14%, 61.2%, 3.51%, 2.99% and 48.5%.
The like results for `O=C1NCCC(c2ccc(Cl)c(Cl)c2)c2nc(N3CCOCC3)sc21` (centres unmarked) [Compound 173] were, in that order, 41.8%, 103%, 41.5%, 24.1% and 110%.
The corresponding values for `CC1(C)C(=O)c2sc(N3CCOCC3)cc2C1(C)c1ccc(Cl)cc1` (racemic) [Compound 118, 4-(4-chlorophenyl)-4,5,5-trimethyl-2-morpholino-4H-cyclopenta[b]thiophen-6(5H)-one] are 9.51%, 63%, 5.03%, 19.7% and 54.6%.
